# The supplement of paper PMC11208160
# Experiment: recombinant barcode read abundance after kanamycin selection (control-corrected) (log10(CPM+1)); higher = more efficient recombination; sequences stand for … in AGTGCAGAGAAAATCGGCCAGTTTTCTCTGCCTGCAGTCCGCATGCCGT…AGATTTATGCAGCGGACTGCCTTTCTCCCAAAGTGATAAACCGGACAGTATCATGGACCGGTTTTCCCGGTAATCCGTATTTGCAAGGTTGGTTTCACT; site = the 11-nt target
# Summary of the method: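 Recombination efficiency was calculated from barcode counts at recombinant junctions, normalized to counts per million, averaged and corrected by the control. Each value is given as log10(CPM+1). The constructs were Gibson-cloned oligos (promoter, target, barcode, J23119-driven first 104 bridge RNA bases) in a vector with the remaining 73 bp and a T7-inducible recombinase, co-electroporated into E. coli with a donor plasmid and plated in duplicate on chloramphenicol/ampicillin LB agar (control) or chloramphenicol/ampicillin/kanamycin with 0.1 mM IPTG.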
# 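Also: IS621 recombinase and bridge RNA in Escherichia coli cells.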
row,Sequence,recombinant barcode read abundance (log10)
1,GAGGCGGCTTGGGTTCTAACCTGTTGCTT (site GAGGCGGCTAA),1.04
2,GAGGCGGCTTGGGTTCTAACCTGTTGCTT (site GAGTCGGCTAA),0.0862
3,GAGGCTCCTTGGGTTCTAACCTGTTGCCA (site GAGGCTCCTAG),2.19
4,GAGGCTCCTTGGGTTCTAACCTGTTGCCA (site GAGGCTCCTCG),0.0289
5,GAGGCTCCTTGGGTTCTAACCTGTTGCCA (site GAGGCTCCTGG),0.164
6,GAGGCTCCTTGGGTTCTAACCTGTTGCCA (site GAGGCTCCTTG),0.365
7,GAGGCTCCTTGGGTTCTAACCTGTTGCCT (site GAGGCTCCTAG),0.744
8,GAGGCTCCTTGGGTTCTAACCTGTTGCCT (site GAGGCTCCTCG),0.0603
9,GAGGCTCCTTGGGTTCTAACCTGTTGCCT (site GAGGCTCCTGG),0.137
10,GAGGCTCCTTGGGTTCTAACCTGTTGCCT (site GAGGCTCCTTG),0.201
11,GAGGGCCCTTGGGTTCTAACCTGTTGCCG (site GAGGGCCCTCA),0.29
12,GAGGGCCCTTGGGTTCTAACCTGTTGCCG (site GAGGGCCCTCC),1.2
13,GAGGGCCCTTGGGTTCTAACCTGTTGCCG (site GAGGGCCCTCG),1.96
14,GAGGGCCCTTGGGTTCTAACCTGTTGCCG (site GAGGGCCCTCT),0.759
15,GAGGGCCCTTGGGTTCTAACCTGTTGCGG (site GAGGGCCCTCA),1.94
16,GAGGGCCCTTGGGTTCTAACCTGTTGCGG (site GAGGGCCCTCC),3.11
17,GAGGGCCCTTGGGTTCTAACCTGTTGCGG (site GAGGGCCCTCG),0.81
18,GAGGGCCCTTGGGTTCTAACCTGTTGCGG (site GAGGGCCCTCT),2.8
19,GAGGGTACTTGGGTTCTAACCTGTTGCAT (site GAGAGTACTAT),1.16
20,GAGGGTACTTGGGTTCTAACCTGTTGCAT (site GAGCGTACTAT),0.206
21,GAGGGTACTTGGGTTCTAACCTGTTGCAT (site GAGGGTACTAT),2.69
22,GAGGGTACTTGGGTTCTAACCTGTTGCAT (site GAGTGTACTAT),0.102

row,Sequence,recombinant barcode read abundance (log10)
1,GAGGGTCCTTGGGTTCTAACCTGTTGCGT (site GAGGGTCCTAA),0.194
2,GAGGGTCCTTGGGTTCTAACCTGTTGCGT (site GAGGGTCCTAC),2.82
3,GAGGGTCCTTGGGTTCTAACCTGTTGCGT (site GAGGGTCCTAG),1.86
4,GAGGGTCCTTGGGTTCTAACCTGTTGCGT (site GAGGGTCCTAT),2.29
5,GAGTACCCTTGGGTTCTAACCTGTTGCGT (site GAGAATCCTAC),0.107
6,GAGTACCCTTGGGTTCTAACCTGTTGCGT (site GAGTACCCTAC),3.2
7,GAGTAGCCTTGGGTTCTAACCTGTTGCGG (site GAGTAGCCTCC),2.59
8,GAGTAGCCTTGGGTTCTAACCTGTTGCGG (site GAGTCGCCTCC),0.196
9,GAGTAGCCTTGGGTTCTAACCTGTTGCGG (site GAGTGGCCTCC),0.3
10,GAGTAGCCTTGGGTTCTAACCTGTTGCGG (site GAGTTGCCTCC),0.204
11,GAGTGTACTTGGGTTCTAACCTGTTGCAT (site GAGAGTACTAT),0.208
12,GAGTGTACTTGGGTTCTAACCTGTTGCAT (site GAGCGTACTAT),0.553
13,GAGTGTACTTGGGTTCTAACCTGTTGCAT (site GAGGGTACTAT),0.029
14,GAGTGTACTTGGGTTCTAACCTGTTGCAT (site GAGTGTACTAT),1.32
15,GAGTGTTCTTGGGTTCTAACCTGTTGCTT (site GAGTGTTCTAA),0.277
16,GAGTGTTCTTGGGTTCTAACCTGTTGCTT (site TGTACGACTCC),0.0677
17,GATAACTCTTGGGTTCTAACCTGTTGCCT (site AATAACTCTAG),0.802
18,GATAACTCTTGGGTTCTAACCTGTTGCCT (site CATAACTCTAG),0.329
19,GATAACTCTTGGGTTCTAACCTGTTGCCT (site GATAACTCTAG),0.734
20,GATAACTCTTGGGTTCTAACCTGTTGCCT (site TATAACTCTAG),0.315
21,GATACTGCTTGGGTTCTAACCTGTTGCCT (site GAAACTGCTAG),0.0212
22,GATACTGCTTGGGTTCTAACCTGTTGCCT (site GACACTGCTAG),0.434

row,Sequence,recombinant barcode read abundance (log10)
1,GATACTGCTTGGGTTCTAACCTGTTGCCT (site GAGACTGCTAG),0.0206
2,GATACTGCTTGGGTTCTAACCTGTTGCCT (site GATACTGCTAG),0.504
3,GATAGGACTTGGGTTCTAACCTGTTGCGT (site GATAGGACTAC),2.12
4,GATAGGACTTGGGTTCTAACCTGTTGCGT (site TATAGGACTAC),2.03
5,GATAGGGCTTGGGTTCTAACCTGTTGCGG (site GATAGGGCTCC),2.34
6,GATAGGGCTTGGGTTCTAACCTGTTGCGG (site TATAGGGCTCG),0.362
7,GATAGTGCTTGGGTTCTAACCTGTTGCCT (site GATAGTACTAG),0.0881
8,GATAGTGCTTGGGTTCTAACCTGTTGCCT (site GATAGTCCTAG),0.0622
9,GATAGTGCTTGGGTTCTAACCTGTTGCCT (site GATAGTGCTAG),0.536
10,GATAGTGCTTGGGTTCTAACCTGTTGCCT (site GATAGTTCTAG),0.0158
11,GATCAATCTTGGGTTCTAACCTGTTGCCT (site GAGCAAACTAG),0.0249
12,GATCAATCTTGGGTTCTAACCTGTTGCCT (site GATCAATCTAG),0.332
13,GATCGAGCTTGGGTTCTAACCTGTTGCGA (site GATCGAGCTTC),0.921
14,GATCGAGCTTGGGTTCTAACCTGTTGCGA (site GATGGAGCTCC),0.428
15,GATGGCCCTTGGGTTCTAACCTGTTGCTT (site GACGGACCTAA),0.101
16,GATGGCCCTTGGGTTCTAACCTGTTGCTT (site GATGGCCCTAA),0.528
17,GATGTAACTTGGGTTCTAACCTGTTGCCT (site GAAGTAACTAG),0.191
18,GATGTAACTTGGGTTCTAACCTGTTGCCT (site GACGTAACTAG),0.101
19,GATGTAACTTGGGTTCTAACCTGTTGCCT (site GAGGTAACTAG),0.0797
20,GATGTAACTTGGGTTCTAACCTGTTGCCT (site GATGTAACTAG),0.956
21,GATTCTACTTGGGTTCTAACCTGTTGCGT (site CATGCTACTAC),0.0209
22,GATTCTACTTGGGTTCTAACCTGTTGCGT (site GATTCTACTAC),0.0518

row,Sequence,recombinant barcode read abundance (log10)
1,GATTCTCCTTGGGTTCTAACCTGTTGCGT (site GATTCTCCTAA),0.0946
2,GATTCTCCTTGGGTTCTAACCTGTTGCGT (site GATTCTCCTAC),0.541
3,GATTCTCCTTGGGTTCTAACCTGTTGCGT (site GATTCTCCTAG),0.141
4,GATTCTCCTTGGGTTCTAACCTGTTGCGT (site GATTCTCCTAT),0.118
5,GATTCTCCTTGGGTTCTAACCTGTTGCTT (site GATTCTCCTAA),0.0943
6,GATTCTCCTTGGGTTCTAACCTGTTGCTT (site GATTCTCCTAC),0.0499
7,GATTCTCCTTGGGTTCTAACCTGTTGCTT (site GATTCTCCTAG),0.0621
8,GATTCTCCTTGGGTTCTAACCTGTTGCTT (site GATTCTCCTAT),0.194
9,GCAAATCCTTGGGTTCTAACCTGTTGCCT (site GCAAATCCTAG),0.873
10,GCAAATCCTTGGGTTCTAACCTGTTGCCT (site GCACATCCTAC),0.108
11,GCAACCTCTTGGGTTCTAACCTGTTGCTA (site CGCTGACCTAG),0.049
12,GCAACCTCTTGGGTTCTAACCTGTTGCTA (site GCAACCTCTTA),1.92
13,GCAAGTACTTGGGTTCTAACCTGTTGCAG (site AGGTTAGCTTA),0.106
14,GCAAGTACTTGGGTTCTAACCTGTTGCAG (site GCAAGTACTCT),1.95
15,GCACAGACTTGGGTTCTAACCTGTTGCCT (site GCAAAGCCTAG),0.207
16,GCACAGACTTGGGTTCTAACCTGTTGCCT (site GCACAGACTAG),2.09
17,GCACAGTCTTGGGTTCTAACCTGTTGCTT (site CCATAGTCTAA),0.0514
18,GCACAGTCTTGGGTTCTAACCTGTTGCTT (site GCACAGTCTAA),1.93
19,GCACGAACTTGGGTTCTAACCTGTTGCCT (site GCACGAACTAG),1
20,GCACGAACTTGGGTTCTAACCTGTTGCCT (site GCCCGAACTAG),0.133
